Earlier results on two compounds are cited in article PMC5007443, “TNIK inhibition abrogates colorectal cancer stemness” (Nature Communications, 2016).

The test system of one data set is TNIK. Set-up: method as in PMID 23232060. To be noted: read-out: IC50, enzyme activity of TNIK; cited from earlier work.
In another data set the test system is Wnt signal. Set-up: method as in PMID 23232060. The following applies: read-out: IC50, Wnt signal-inhibitory effects; cited from earlier work.
The next data set deals with lung cancer cells. Set-up: method as in PMID 25337707. The following applies: cited from earlier work.

Each structure is given as a SMILES string. pIC50: −log10 of the molar value.

Take `COc1ccc(C#N)cc1-c1ccnc(Nc2ccc(N3CCOCC3)c(OC)c2)c1` [Compound 9, 4-methoxy-3-(2-(3-methoxy-4-morpholinophenylamino)pyridin-4-yl)benzonitrile]: the pIC50 was 8.10 in the data set on TNIK and below 5.70 in the data set with Wnt signal.
For the compound `Cc1ccc(C(=O)Nc2sc(Nc3ccccc3)nc2C(N)=O)cc1` [NCB-0005], in the data set on lung cancer cells, the “EMT of lung cancer cells induced by TGF-β1” value was “inhibit”.
